≈ marks a conversion by molar mass, not a printed value. Where two headings read alike, the source gives them in different places.
Tests used:
OVCAR3 cells = assay: Cellular proliferation EdU assay, OVCAR3; assay type: cell-based, human; conditions: Homo sapiens, OVCAR-3, 48 h, read-out: OVCAR3 IC50
Procedure: (§1) Compounds were tested to assess inhibition of cellular proliferation in the breast cancer cell line MCF-7 and the CCNE1-amplified ovarian cell line OVCAR3.
(§2) MCF-7 and OVCAR3 cells in RPMI supplemented with 10% Fetal bovine serum were seeded into 384-well plates (Greiner, Kremsmunster, Austria; 781091), 30 μL/well, using a WellMate. The MCF7 and OVCAR3 cells were seeded at 800 and 1200 cells/well, respectively. Test compounds were added to the wells using an Echo 555 liquid handler and the plates were placed in incubator maintained at 37° C. and 5% CO2 and incubated for two days. On Day 2, an EdU assay was performed following the manufacturer's protocol (Thermo Fisher, C10351). The cells were read on an Acumen eX3 instrument. The IC50 values of test compounds were determined in Genedata by assessing the ratio of signal intensity at 488 nm to the area of signal at 405 nm.

[1] = Aqueous thermodynamic solubility, shake-flask; assay type: physicochemical; conditions: aqueous phosphate buffer, 25 °C, pH 7.4, aqueous buffer, thermodynamic from solid, phosphate buffer 0.1 M, pH 7.4, 24 hours
Procedure: The DMSO was evaporated and the dried compounds were equilibrated in glass vials in aqueous phosphate buffer (0.1 M, pH 7.4) for 24 hours at 25° C. under constant stirring. The portion with the dissolved compound was then separated from the remainder through a double centrifugation with a tip wash in between to ensure that no residues of the dried compound were interfering. The solutions were diluted with purified water before quantification using UPLC/MS/MS.

MCF-7 cells = assay: Cellular proliferation EdU assay, MCF-7; assay type: cell-based; conditions: Homo sapiens, MCF7, 48 h, read-out: MCF-7 IC50
Procedure: as §1, §2

[2] = tested on: POLR2A Ser2 phosphorylation (CDK9); assay: POLR2A Ser2 phosphorylation imaging assay in MCF-7 cells; assay type: cell-based; conditions: Homo sapiens, MCF7, 2 h, read-out: POLR2A Ser2 phosphorylation IC50
Procedure: Compounds were tested to assess their effect on CDK9 activity in a cellular context. […] During the cell cycle, CDK9 is a component of a multiprotein complex that phosphorylates POLR2A Ser2 which results in transcription elongation.
[…] were fixed by addition of 40 μL/well of 8% paraformaldehyde and incubated for 10 minutes at room temperature. The plates were washed three times with 50 μL/well PBS using a Biotek EL406 plate washer and then permeabilized for 10 minutes at room temperature in 0.3% Triton X100 in PBS. After washing as before, the plates were blocked using 30 μL/well of 2% BSA (w/v) in PBS-T for over 30 minutes at room temperature. […] After washing in PBS as before, leaving each well in 40 μL of PBS, the plates were sealed and imaged on a Cell Insight imaging system (Thermo) with a 10× objective and 2 fields of view per well. POLR2A Ser2levels were normalized to controls and the IC50 values of test compounds determined using Genedata Screener software.

CDK2:CCNE1 = CDK2:CCNE1 (Homo sapiens (Human), UniProt P24941); assay: NanoBRET assay in MCF-7 cells, CDK2; assay type: cell-based; conditions: transfected MCF-7 cells, 2 hours, n = 1 or average
Procedure: Compounds were tested in breast cancer cell line MCF-7 to assess inhibition of CDK1, CDK2, and CDK4 activity. […] The next day media were evacuated from the wells using the Bluewasher centrifugal plate washer (Bluecatbio) and 10 μL/well phenol red free OptiMEM was then added using a Multidrop Combi. […] Immediately after compound addition, a Tecan HP300 dispensor was used to dispense the relevant NanoBRET™ tracer to the CDK1 wells (12.5 nl, 400 μM, NanoBRET™ TE Tracer K-9), the CDK2 wells (12.5 nl, 200 μM, NanoBRET™ TE Tracer K-9), and the CDK4 wells (8 nl, 100 μM, NanoBRET™ TE Tracer K-7) and the plates were incubated for 2 hours at 37° C. and 5% CO2. […] The plates were incubated in subdued lighting for 10 minutes and then read on a Pherastar FS plate reader (BMG Technologies) using a NanoBRET™ filter module (460±80 nm/610 nm-LP). The ratio values were normalized to controls and the IC50 values of test compounds determined using Genedata Screener software.

CDK4:CCND1 = CDK4:CCND1 (Homo sapiens (Human), UniProt P11802); assay: NanoBRET assay in MCF-7 cells, CDK4; assay type: cell-based; conditions: CDK4 IC50, NanoBRET, transfected MCF-7 cells, 2 hours; n = 1 or average
Procedure: (§3) Compounds were tested in breast cancer cell line MCF-7 to assess inhibition of CDK1, CDK2, and CDK4 activity. MCF-7 cells transiently transfected with CDK1:CCNB1, CDK2:CCNE1, or CDK4:CCND1 were harvested at a density of 1E5 cells/mL in complete media, seeded 20 μL/well into 384-well Greiner 784080 plates using a Multidrop Combi, and incubated overnight at 37° C. and 5% CO2. The next day media were evacuated from the wells using the Bluewasher centrifugal plate washer (Bluecatbio) and 10 μL/well phenol red free OptiMEM was then added using a Multidrop Combi. […] Immediately after compound addition, a Tecan HP300 dispensor was used to dispense the relevant NanoBRET™ tracer to the CDK1 wells (12.5 nl, 400 μM, NanoBRET™ TE Tracer K-9), the CDK2 wells (12.5 nl, 200 μM, NanoBRET™ TE Tracer K-9), and the CDK4 wells (8 nl, 100 μM, NanoBRET™ TE Tracer K-7) and the plates were incubated for 2 hours at 37° C. and 5% CO2. The plates were allowed to cool for 10 minutes at room temperature and 5 μL/well of TE Nano-Glo®Substrate/Inhibitor at 2.4 μM and 1:500 respectively (N2162 Promega) was added. The plates were incubated in subdued lighting for 10 minutes and then read on a Pherastar FS plate reader (BMG Technologies) using a NanoBRET™ filter module (460±80 nm/610 nm-LP). The ratio values were normalized to controls and the IC50 values of test compounds determined using Genedata Screener software.

CDK1:CCNB1 = CDK1:CCNB1 (Homo sapiens (Human), UniProt P06493); assay: NanoBRET assay in MCF-7 cells, CDK1; assay type: cell-based; conditions: CDK1 IC50, NanoBRET, transfected MCF-7 cells, 2 hours; n = 1 or average
Procedure: as §3

[3] = tested on: NPM phosphorylation (Thr199, CDK2-cyclin E complex); assay: NPM phosphorylation imaging assay in MCF-7 cells; assay type: cell-based; conditions: Homo sapiens, MCF7, 2 hours, 4N DNA cells
Procedure: Compounds were tested to assess the effects of CDK2 inhibition in a cellular context. […] During the cell cycle, the CDK2-cyclin E complex phosphorylates NPM at Thr199 which is a prerequisite step for initiation of centrosome duplication.
The cells were fixed by addition of 40 μL/well of 8% paraformaldehyde and incubated at room temperature for 10 minutes. The plates were washed three times with 50 μL/well PBS using a Biotek EL406 plate washer and then permeabilized for 10 minutes at room temperature in 0.3% Triton X100 in PBS. After washing as before, the plates were blocked using 30 μL/well of 2% BSA (w/v) in PBS-T for at least 30 minutes at room temperature. […] Cells containing 4N DNA were selected using the Hoechst staining. Phospho-NPM levels were normalized to controls and the IC50 values of test compounds determined using Genedata Screener software.

Sequence of CDK4:CCND1 (P11802 whole entry): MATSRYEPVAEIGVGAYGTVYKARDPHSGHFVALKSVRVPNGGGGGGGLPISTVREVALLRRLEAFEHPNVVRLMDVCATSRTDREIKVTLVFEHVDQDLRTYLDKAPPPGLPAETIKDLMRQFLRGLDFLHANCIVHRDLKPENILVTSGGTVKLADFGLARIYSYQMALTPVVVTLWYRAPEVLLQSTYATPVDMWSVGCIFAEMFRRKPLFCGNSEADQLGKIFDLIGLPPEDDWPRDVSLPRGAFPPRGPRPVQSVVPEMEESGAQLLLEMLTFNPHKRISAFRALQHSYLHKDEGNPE
Sequence of CDK4:CCND1 (P24385 whole entry partner): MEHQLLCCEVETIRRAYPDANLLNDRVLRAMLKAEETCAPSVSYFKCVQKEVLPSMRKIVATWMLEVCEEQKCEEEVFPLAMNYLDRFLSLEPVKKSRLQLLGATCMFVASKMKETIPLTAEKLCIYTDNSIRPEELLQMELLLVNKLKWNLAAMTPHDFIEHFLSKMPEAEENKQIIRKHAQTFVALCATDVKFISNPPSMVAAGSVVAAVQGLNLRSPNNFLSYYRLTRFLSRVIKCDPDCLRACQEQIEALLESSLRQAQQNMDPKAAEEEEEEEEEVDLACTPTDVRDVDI
Sequence of CDK1:CCNB1 (P06493 whole entry): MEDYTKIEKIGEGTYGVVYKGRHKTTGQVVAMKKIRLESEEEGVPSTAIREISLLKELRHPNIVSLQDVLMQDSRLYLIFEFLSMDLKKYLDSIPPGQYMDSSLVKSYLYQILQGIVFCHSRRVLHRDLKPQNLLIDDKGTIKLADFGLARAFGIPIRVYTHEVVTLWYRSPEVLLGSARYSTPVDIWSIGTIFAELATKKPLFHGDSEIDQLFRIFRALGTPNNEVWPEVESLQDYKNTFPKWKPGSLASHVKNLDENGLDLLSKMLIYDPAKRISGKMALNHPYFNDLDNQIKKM
Sequence of CDK1:CCNB1 (P14635 whole entry partner): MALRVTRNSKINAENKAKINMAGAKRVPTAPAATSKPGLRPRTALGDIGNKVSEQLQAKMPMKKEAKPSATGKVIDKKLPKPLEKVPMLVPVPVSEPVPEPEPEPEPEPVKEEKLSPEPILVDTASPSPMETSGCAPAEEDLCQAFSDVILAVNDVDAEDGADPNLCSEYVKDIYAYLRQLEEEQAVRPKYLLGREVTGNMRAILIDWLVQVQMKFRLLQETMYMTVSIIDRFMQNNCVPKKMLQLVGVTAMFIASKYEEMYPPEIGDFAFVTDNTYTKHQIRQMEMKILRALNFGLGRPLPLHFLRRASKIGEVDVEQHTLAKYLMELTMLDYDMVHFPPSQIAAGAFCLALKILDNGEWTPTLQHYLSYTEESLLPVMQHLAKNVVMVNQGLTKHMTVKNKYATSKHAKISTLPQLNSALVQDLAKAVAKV

CC[C@H](Nc1nc(N[C@H]2CCN(S(=O)(=O)NCC(F)F)C2)c2ncn(CC)c2n1)[C@@H](C)O [Example 5, (S)—N-(2,2-difluoroethyl)-3-((9-ethyl-2-(((2R,3S)-2-hydroxypentan-3-yl)amino)-9H-purin-6-yl)amino)pyrrolidine-1-sulfonamide] showed an IC50 (OVCAR3 cells; EdU assay, two days) of 154 nM, a solubility at 24 h [1] greater than 1000 µM and an IC50 (MCF-7 cells; EdU assay, two days) of 917 nM. It also gave an IC50 ([2]; MCF-7 cells, 2 hours) greater than 30000 nM.

Compound CCNS(=O)(=O)N1CC[C@H](Nc2nc(N[C@H](CC)C(C)=O)nc3c2ncn3CC)C1 [Example 12, (S)—N-ethyl-3-((9-ethyl-2-(((R)-2-oxopentan-3-yl)amino)-9H-purin-6-yl)amino)pyrrolidine-1-sulfonamide] has an IC50 (CDK2:CCNE1) of 88 nM, an IC50 (OVCAR3 cells) of 1560 nM and a solubility at 24 h [1] of 955 µM (≈ 419 µg/mL). The IC50 (CDK4:CCND1) was greater than 29700 nM, the IC50 (CDK1:CCNB1) was 7480 nM and the IC50 (MCF-7 cells) was 3400 nM. For the same compound, the IC50 [2] was greater than 30000 nM.

In the case of CC[C@H](Nc1nc(N[C@H]2CCN(S(=O)(=O)NC)C2)c2ncn(CC)c2n1)C(C)=O [Example 45, (S)-3-((9-ethyl-2-(((S)-2-oxopentan-3-yl)amino)-9H-purin-6-yl)-amino)-N-methylpyrrolidine-1-sulfonamide], the IC50 (CDK2:CCNE1) is reported as 39 nM, the IC50 (OVCAR3 cells; EdU assay, two days) is reported as 359 nM and the IC50 (CDK4:CCND1) is reported as greater than 29700 nM. For the same compound, the IC50 (CDK1:CCNB1) was 1890 nM, the IC50 (MCF-7 cells; EdU assay, two days) was 944 nM and the IC50 ([2]; MCF-7 cells, 2 hours) was greater than 26700 nM.

With CCNS(=O)(=O)N1CC[C@H](Nc2nc(N[C@H](CC)[C@H](C)O)nc3c2ncn3CC)C1 [Example 11, (S)—N-ethyl-3-((9-ethyl-2-(((2S,3R)-2-hydroxypentan-3-yl)amino)-9H-purin-6-yl)amino)pyrrolidine-1-sulfonamide] the IC50 (OVCAR3 cells; EdU assay, two days) was 1400 nM, the IC50 (MCF-7 cells; EdU assay, two days) was 3300 nM and the IC50 [2] was greater than 30000 nM.

With CC[C@H](Nc1nc(N[C@H]2CCN(S(=O)(=O)N3CC(F)C3)C2)c2ncn(CC)c2n1)[C@@H](C)O [Example 24, (2R,3S)-3-((9-ethyl-6-(((S)-1-((3-fluoroazetidin-1-yl)sulfonyl)pyrrolidin-3-yl)amino)-9H-purin-2-yl)amino)pentan-2-ol] the IC50 (OVCAR3 cells; EdU assay, two days) was 856 nM, the solubility at 24 h [1] was 466 µM (≈ 219 µg/mL) and the IC50 (MCF-7 cells; EdU assay, two days) was 2930 nM. For the same compound, the IC50 ([2]; MCF-7 cells, 2 hours) was greater than 30000 nM.

For CC[C@H](Nc1nc(N[C@H]2CCN(S(=O)(=O)N[C@@H]3CCOC3)C2)c2ncn(CC)c2n1)[C@@H](C)O [Example 18, (S)-3-((9-ethyl-2-(((2R,3S)-2-hydroxypentan-3-yl)amino)-9H-purin-6-yl)amino)-N—((R)-tetrahydrofuran-3-yl)pyrrolidine-1-sulfonamide], the IC50 (OVCAR3 cells; EdU assay, two days) was 169 nM, the solubility at 24 h [1] was 726 µM (≈ 350 µg/mL) and the IC50 ([2]; MCF-7 cells, 2 hours) was 23600 nM.

Work on CCNS(=O)(=O)N1CC[C@H](Nc2nc(N[C@H](CC)[C@@H](C)O)nc3c2ncn3CC)C1 (mixture of isomers) [Example 13, (S)—N-ethyl-3-((9-ethyl-2-(((2R,3R)-2-hydroxypentan-3-yl)amino)-9H-purin-6-yl)amino)pyrrolidine-1-sulfonamide] yielded an IC50 (OVCAR3 cells; EdU assay, two days) of 202 nM, an IC50 (MCF-7 cells; EdU assay, two days) of 490 nM and an IC50 [2] greater than 30000 nM.

CC[C@H](Nc1nc(N[C@H]2CCN(S(=O)(=O)NCC(F)(F)F)C2)c2ncn(CC)c2n1)[C@@H](C)O [Example 4, (S)-3-((9-ethyl-2-(((2R,3S)-2-hydroxypentan-3-yl)amino)-9H-purin-6-yl)amino)-N-(2,2,2-trifluoroethyl)pyrrolidine-1-sulfonamide] gave an IC50 (OVCAR3 cells; EdU assay, two days) of 294 nM, a solubility at 24 h [1] of 57 µM (≈ 28.2 µg/mL) and an IC50 (MCF-7 cells; EdU assay, two days) of 685 nM. It also gave an IC50 [3] of 164 nM and an IC50 ([2]; MCF-7 cells, 2 hours) greater than 30000 nM.

CC[C@H](Nc1nc(N[C@H]2CCN(S(=O)(=O)NC)C2)c2ncn(CF)c2n1)[C@@H](C)O [Example 54, (S)-3-((9-(fluoromethyl)-2-(((2R,3S)-2-hydroxypentan-3-yl)amino)-9H-purin-6-yl)amino)-N-methylpyrrolidine-1-sulfonamide] showed an IC50 (OVCAR3 cells; EdU assay, two days) of 756 nM, a solubility at 24 h [1] of 593 µM (≈ 255 µg/mL) and an IC50 (MCF-7 cells; EdU assay, two days) of 1370 nM. It also gave an IC50 [3] of 334 nM and an IC50 ([2]; MCF-7 cells, 2 hours) greater than 30000 nM.

Compound CC[C@H](Nc1nc(N[C@H]2CCN(S(=O)(=O)N[C@H]3CCOC3)C2)c2ncn(CC)c2n1)[C@@H](C)O [Example 22, (S)-3-((9-ethyl-2-(((2R,3S)-2-hydroxypentan-3-yl)amino)-9H-purin-6-yl)amino)-N—((S)-tetrahydrofuran-3-yl)pyrrolidine-1-sulfonamide] has an IC50 (OVCAR3 cells; EdU assay, two days) of 298 nM, a solubility at 24 h [1] greater than 1000 µM and an IC50 (MCF-7 cells; EdU assay, two days) of 1440 nM. For the same compound, the IC50 ([2]; MCF-7 cells, 2 hours) was greater than 30000 nM.

In the case of CCNS(=O)(=O)N1CC[C@H](Nc2nc(N[C@@H](CC)[C@H](C)O)nc3c2ncn3CC)C1 [Example 8, (S)—N-ethyl-3-((9-ethyl-2-(((2S,3S)-2-hydroxypentan-3-yl)amino)-9H-purin-6-yl)amino)pyrrolidine-1-sulfonamide], the IC50 (OVCAR3 cells; EdU assay, two days) is reported as 1580 nM, the IC50 (MCF-7 cells; EdU assay, two days) is reported as 4770 nM and the IC50 [2] is reported as greater than 30000 nM.

CCNS(=O)(=O)N1CC[C@H](Nc2nc(N[C@@H](CC)C(C)=O)nc3c2ncn3CC)C1 [Example 7, (S)—N-ethyl-3-((9-ethyl-2-(((S)-2-oxopentan-3-yl)amino)-9H-purin-6-yl)amino)pyrrolidine-1-sulfonamide] showed an IC50 (CDK2:CCNE1) of 13 nM, an IC50 (OVCAR3 cells) of 203 nM and a solubility at 24 h [1] of 220 µM (≈ 96.5 µg/mL). It also gave an IC50 (CDK4:CCND1) of 19100 nM, an IC50 (CDK1:CCNB1) of 591 nM and an IC50 (MCF-7 cells) of 486 nM. The IC50 [2] was 24200 nM.
